According to PubChem BioAssay (NCI):
Where “and” joins values, the source holds several entries; their conditions need not be identical. Equal values may be shown once.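 In this assay, cells in 96-well plates receive the compound at five concentrations for 48 hours. Endpoints are linearly interpolated between the surrounding concentrations. GI50 marks 50% less growth. TGI is the concentration that stops growth completely.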

Columns and labels:
Assay in all cases: inhibition of tumour cell growth, NCI panel, 48 h
[1] = system: SF-268 CNS
[2] = system: SF-539 CNS
[3] = system: MALME-3M melanoma
[4] = system: RPMI-8226 leukemia
[5] = system: M14 melanoma
[6] = system: HCT-15 colon
[7] = system: COLO 205 colon
[8] = system: DU-145 prostate
[9] = system: SR leukemia
[10] = system: SW-620 colon

Row | SMILES | GI50 [1] | TGI [1] | GI50 [2] | TGI [2] | GI50 [3] | TGI [3] | GI50 [4] | TGI [4] | GI50 [5] | TGI [5] | GI50 [6] | TGI [6] | GI50 [7] | TGI [7] | GI50 [8] | TGI [8] | GI50 [9] | TGI [9] | GI50 [10] | TGI [10]
1 | CCN=C1C=CC(=C(c2ccc(N(C)C)cc2)c2ccc(N(C)C)cc2)c2ccccc21 | 0.114 µM | 0.981 µM | 0.124 µM | 0.53 µM | 0.026 µM | 0.0855 µM | 0.0165 µM | 0.0555 µM | 0.107 µM | 0.372 µM | 0.294 µM | 1.31 µM | 0.0508 µM | 0.183 µM | 0.0829 µM | 0.357 µM | 0.0846 µM | 0.572 µM | 0.113 µM | 1.11 µM
2 | Cc1cc(N2CCCCC2)nc(N(CCNc2ccnc3cc(Cl)ccc23)Cc2ccco2)n1 | 2.57 µM | 6.53 µM | 2.05 µM | 4.2 µM | 1.98 µM | 3.65 µM | 2 µM | 4.55 µM | 1.82 µM | 3.61 µM | 1.44 µM | 3.3 µM | 1.49 µM | 3.25 µM | 2.87 µM | 9.2 µM | 1.77 µM | 4.02 µM | 1.53 µM | 3.08 µM
3 | CCn1c(-c2nonc2N)nc2cncc(C(=O)N3CCNCC3)c21 | > 25 µM | > 25 µM | > 25 µM | > 25 µM | > 25 µM | > 25 µM | > 25 µM | > 25 µM | > 25 µM | > 25 µM | > 25 µM | > 25 µM | > 25 µM | > 25 µM | > 25 µM | > 25 µM | > 25 µM | > 25 µM | > 25 µM | > 25 µM
4 | O=C(CCl)c1ccc([N+](=O)[O-])o1 | 2.54 µM | 6.8 µM | 2.28 µM | 5.03 µM | 1.98 µM | 4.37 µM | 0.873 µM |  | 2.18 µM | 5.06 µM | 1.61 µM | 3.22 µM | 1.73 µM | 3.72 µM | 2.21 µM | 5.01 µM | 0.406 µM | 1.81 µM | 0.886 µM | 2.54 µM
5 | C[C@]12CC[C@H]3[C@@H](CCC4=CC(=O)CC[C@@H]43)[C@@H]1CC[C@@H]2OC(=O)N(CCCl)N=O | 0.167 µM | 17.6 µM | 0.0959 µM | 10.6 µM | 11.3 µM | 28.9 µM | 0.983 µM |  | 4.27 µM | 21.4 µM | 8.45 µM | 31.3 µM | 3.1 µM | 20 µM | 0.433 µM | 4.41 µM | < 0.0381 µM |  | 1.75 µM | 26.7 µM
6 | COc1ccc(C(=O)/C=C/c2ccc(Cl)cc2)cc1S(=O)(=O)Nc1c(N)nc(SC)[nH]c1=O | 2.69 µM | 7.32 µM | 2.1 µM | 5 µM | 3.02 µM | 9.93 µM | 2.17 µM | 5.97 µM | 2 µM | 4.89 µM | 3.24 µM | 14.9 µM | 1.76 µM | 3.42 µM | 3.58 µM | 11.5 µM | 3.57 µM | > 100 µM | 2.24 µM | 5.5 µM
7 | COc1cccc(C2=C(c3cn(C)c4ccccc34)C(=O)NC2=O)c1 | 16.3 µM | > 25 µM | 16.5 µM | > 25 µM | 14.2 µM | > 25 µM | 14.1 µM | > 25 µM | 18.9 µM | > 25 µM | 5.57 µM | > 25 µM | 9.92 µM | > 25 µM | > 25 µM | > 25 µM | 5.91 µM | > 25 µM | 9.13 µM | > 25 µM
8 | COc1ccc(Cn2nc(-c3cc(OC)c(OC)c(OC)c3)c3c2CCc2cnoc2-3)cc1OC | 5.41 µM | > 100 µM | 3.11 µM | 36.1 µM | 14.8 µM | > 100 µM | 2.69 µM | 23 µM | 4.08 µM | 47.4 µM | 4.98 µM | > 100 µM | 4.68 µM | 23.4 µM | 13.2 µM | > 100 µM | 2.67 µM | > 100 µM | 3.98 µM | > 100 µM
9 | CCCN1C(=O)/C(=c2\sc3n(c2=O)C2C(NN=3)N(CC)C(=O)N2CC)c2ccccc21 (centres undefined) | 0.959 µM | 19 µM | 0.258 µM | 0.802 µM | 0.612 µM | 25.1 µM | 0.427 µM | 6.48 µM | 0.413 µM | 12.4 µM | 0.416 µM | > 52.4 µM | 0.665 µM | 10.4 µM | 0.421 µM | 11 µM | 0.422 µM | 21.9 µM | 0.409 µM | > 100 µM
10 | O=C(O)CS(=O)(=O)C(c1ccccc1)c1ccccc1 |  | > 100 µM |  | > 100 µM |  | > 100 µM |  | > 100 µM |  | > 100 µM |  | > 100 µM |  | > 100 µM |  | > 100 µM |  | > 100 µM |  | > 100 µM
11 | CCOC(=O)Cc1c[nH]c(=S)[nH]c1=O | > 100 µM | > 100 µM | > 100 µM | > 100 µM | > 100 µM | > 100 µM | > 100 µM | > 100 µM | > 100 µM | > 100 µM | > 100 µM | > 100 µM | > 100 µM | > 100 µM | > 100 µM | > 100 µM | > 100 µM | > 100 µM | > 100 µM | > 100 µM
12 | C=C(C)[C@@H]1CC=C(CO)CC1 | > 10 µM | > 10 µM and 709 µM | > 10 µM | > 10 µM and 1120 µM | > 10 µM | > 10 µM and 1080 µM |  | > 10 µM | > 10 µM | > 10 µM and 1410 µM | > 10 µM | > 10 µM and 790 µM | > 10 µM | > 10 µM and 768 µM |  | > 10 µM | > 10 µM | > 10 µM and 1080 µM |  | 1340 µM
13 | CCN(CC)c1ccc(/C=C/c2cc(C)c3ccccc3n2)cc1 | 5.46 µM | 74.4 µM | 3.2 µM | 9.61 µM | 3.39 µM | 22.8 µM | 3.11 µM | 11.3 µM | 3.42 µM | 13.6 µM | 2.27 µM | 26.4 µM | 2.14 µM | 5.23 µM | 3.43 µM | 15.3 µM | 1.53 µM | 12.1 µM | 1.87 µM | 9.21 µM
14 | COc1cc(Cn2cc3c(c2)-c2oncc2CC3)cc(OC)c1OC | 0.0778 µM | > 55.4 µM | 0.0237 µM | 0.0657 µM | 0.0254 µM | 30.3 µM | 0.0459 µM | 10.4 µM | 0.0274 µM | 38.9 µM | 0.0415 µM | > 100 µM | 0.0332 µM | 0.0957 µM | 0.0412 µM | > 100 µM | 0.0286 µM | > 100 µM | 0.0327 µM | > 100 µM
15 | O=C(O)[C@@H]1C2CC([C@@H]1C(=O)O)[C@H](N1C(=O)CCC1=O)[C@@H]2Br (some centres undefined) |  | > 100 µM |  | > 100 µM |  | > 100 µM |  | > 100 µM |  | > 100 µM |  | > 100 µM |  | > 100 µM |  | > 100 µM |  | > 100 µM |  | > 100 µM
16 | CC[C@](C)(O)C(=O)O[C@H]1C(=O)O[C@@H]2C[C@H]3C(C)=CC(=O)[C@@H](O)[C@]3(C)[C@H]3[C@@]4(O)OC[C@]32[C@@H]1[C@@H](C)[C@H]4O | 0.155 µM | 0.633 µM and 0.226 µM | 0.0141 µM | 0.0353 µM and 0.0895 µM | 0.0337 µM | 0.137 µM | 0.0928 µM |  |  | 0.396 µM | 0.214 µM | 0.874 µM and 0.533 µM | 1.92 µM | 7.24 µM and 3.35 µM |  | 2.9 µM |  | 2.55 µM | 0.216 µM | 
17 | CC(C)(C(=O)NN)c1ccccc1 |  | > 100 µM |  | > 100 µM |  | > 100 µM |  | > 100 µM |  | > 100 µM |  | > 100 µM |  | > 100 µM |  | > 100 µM |  | > 100 µM |  | > 100 µM
18 | CCOC(=O)c1c2c(n(CC(C)C)c1C)-c1nc[nH]c1C(=O)C2=O | 15.2 µM | 28.5 µM | 14 µM | 26.9 µM | 21.1 µM | 36.6 µM | 8.91 µM | 21.6 µM | 23 µM | 40.5 µM | 14.7 µM | 27.9 µM | 18 µM | 32.3 µM | 16.1 µM | 29.6 µM | 0.384 µM | 2.15 µM | 20.8 µM | 39.1 µM
